# Experimental data taken from US20020099070A1, “Dihydronaphthyridine potassium channel openers” (priority 2000, published 2002).
# System: primary cultured guinea-pig urinary bladder (GPB) cells
# Assay: Membrane hyperpolarization (MHP) assay, DiBAC(4)3 / FLIPR
# Type: cell-based
# Conditions: for Emax / Maximal Response (% P1075): maximal steady-state hyperpolarization, normalized to 10 μM P1075 = 100%; for Emax: read-out: Maximal Response (% P1075); for EC50: membrane hyperpolarization in GPB cells
# Protocol: Compounds were evaluated for potassium channel opening activity using primary cultured guinea-pig urinary bladder (GPB) cells.
# For the preparation of urinary bladder smooth muscle cells, urinary bladders were removed from male guinea-pigs (Hartley, Charles River, Wilmington, Mass.) weighing 300-400 g and placed in ice-cold Ca^2+-free Krebs solution (Composition, mM: KCl, 2.7; KH2PO4, 1.5; NaCl, 75; Na2HPO4, 9.6; Na2HPO4.7H2O, 8; MgSO4, 2; glucose, 5; HEPES, 10; pH 7.4). Cells were isolated by enzymatic dissociation as previously described with minor modifications in Klockner, U. and Isenberg, G., Pflugers Arch. 1985, 405, 329-339, hereby incorporated by reference. The bladder was cut into small sections and incubated in 5 mL of the Kreb's solution containing 1 mg/mL collagenase (Sigma, St. Louis, Mo.) and 0.2 mg/mL pronase (Calbiochem, La Jolla, Calif.) with continuous stirring in a cell incubator for 30 minutes. The mixture was then centrifuged at 1300×g for 5 minutes, and the pellet resuspended in Dulbecco's PBS (GIBCO, Gaithersburg, Md.) and recentrifuged to remove residual enzyme. The cell pellet was resuspended in 5 mL growth media (composition: Dulbecco's modified Eagle's medium supplemented with 10% fetal bovine serum, 100 units/mL penicillin, 100 units/mL streptomycin and […] amphotericin B) and further dissociated by pipetting the suspension through a flame-polished Pasteur pipette and passing it through a polypropylene mesh membrane (Spectrum, Houston, Tex.). The cell density was adjusted to 100,000 cells/mL by resuspension in growth media. Cells were plated in clear-bottomed black 96-well plates (Packard) for membrane potential studies at a density of 20,000 cells/well and maintained in a cell incubator with 90% air: 10% CO2 until confluent. Cells were confirmed to be of smooth muscle type by cytoskeletal staining using a monoclonal mouse anti human-α-smooth muscle actin (Biomeda, Foster City, Calif.).
# Functional activity at potassium channels was measured by evaluating changes in membrane potential using the bis-oxonol dye DiBAC(4)3 (Molecular Probes) in a 96-well cell-based kinetic assay system, Fluorescent Imaging Plate Reader (FLIPR) (K. S. Schroeder et al., J. Biomed. Screen., v. 1 pp. 75-81 (1996)), hereby incorporated by reference. DiBAC(4)3 is an anionic potentiometric probe which partitions between cells and extracellular solution in a membrane potential-dependent manner. With increasing membrane potential (for example, K^+ depolarization), the probe fuither partitions into the cell; this is measured as an increase in fluorescence due to dye interaction with intracellular lipids and proteins. Conversely, decreasing membrane potential (hyperpolarization by potassium channel openers) evokes a decrease in fluorescence.
# Confluent guinea-pig urinary bladder cells cultured in black clear-bottomed 96-well plates were rinsed twice with […] assay buffer (composition, mM: HEPES, 20; NaCl, 120; KCl, 2; CaCl2, 2; MgCl2, 1; glucose, 5; pH 7.4 at 25° C.) containing 5 μM DiBAC(4)3 and incubated with […] of the buffer in a cell incubator for 30 minutes at 37° C. to ensure dye distribution across the membrane. After recording the baseline fluorescence for 5 minutes, the reference or test compounds, prepared at 10 times the concentration in the assay buffer, were added directly to the wells. Changes in fluorescence were monitored for an additional 25 minutes. Hyperpolarization responses were corrected for any background noise and were normalized to the response observed with 10 μM of the reference compound P1075, N″-cyano-N-(tert-pentyl)-N′-(3-pyridinyl)guanidine, which was assigned as 100%. P1075 is a potent opener of smooth muscle KATP channels (Quast et al., Mol. Pharmacol., v. 43 pp. 474-481 (1993)) and was prepared using the procedures described in (Manley, J. Med. Chem. (1992) 35, 2327-2340), hereby incorporated by reference. […]
Compound,EC50 (Cavia porcellus) [µM],EC50 [µM],Emax (Cavia porcellus) [%],Maximal Response (% P1075)
"CC1=C(C#N)C(c2ccc(Cl)c(Cl)c2)C2=C(CCNC2=O)N1 (stereo not drawn) [Example 8, 4-(3,4-dichlorophenyl)-3-cyano-2-methyl-4,6,7,8-tetahydro[1,6]naphthyridin-5(1H)-one]",–,0.038,–,97
"CC1=C(C#N)C(c2ccc(Cl)c(C(F)(F)F)c2)C2=C(CCNC2=O)N1 (stereo not drawn) [Example 16, 4-[4-chloro-3-(trifluoromethyl)phenyl]-3-cyano-2-methyl-4,6,7,8-tetrahydro[1,6]naphthyridin-5(1H)-one]",0.18,–,109,–
"CC1=C(C#N)C(c2ccc(F)c(Br)c2)C2=C(CCNC2=O)N1 (stereo not drawn) [Example 3, 4-(3-bromo-4-fluorophenyl)-3-cyano-2-methyl-4 6,7,8-tetrahydro[1,6]naphthyridin-5(1H)-one]",–,2.5,–,78
"CC1=C(C#N)C(c2ccc(F)c(Br)c2)C2=C(CCNC2=O)N1 (racemic) [Example 1, 4-(3-bromo-4-fluorophenyl)-3-cyano-2-methyl-4,6,7,8-tetrahydro[1,6]naphthyridin-5(1H)-one]",0.052,–,83,–
"CC1=C(C#N)C(c2ccc(F)c(Br)c2)c2c(cc[nH]c2=O)N1 (racemic) [Example 4, 4-(3-bromo-4-fluorophenyl)-3-cyano-2-methyl-4,6-dihydro[1,6]naphthyridin-5(1H)-one]",0.013,–,92,–
"CC1=C(C#N)C(c2ccc(Br)c(Br)c2)C2=C(CCNC2=O)N1 (stereo not drawn) [Example 11, 4-(3,4-dibromophenyl)-3-cyano-2-methyl-4,6,7,8-tetrahydro[1,6]naphthyridin-5(1H)-one]",0.023,–,105,–
"CC1=C(C#N)C(c2ccc(F)c(Cl)c2)C2=C(CCNC2=O)N1 (stereo not drawn) [Example 15, 4-(3-chloro-4-fluorophenyl)-3-cyano-2-methyl-4,6,7,8-tetrahydro[1,6]naphthyridin-5(1H)-one]",0.11,–,102,–
"CC1=C(C#N)C(c2ccc(F)c(C(F)(F)F)c2)C2=C(CCNC2=O)N1 (stereo not drawn) [Example 13, 4-[4-fluoro-3-(trifluoromethyl)phenyl]-3-cyano-2-methyl-4,6,7,8-tetrahydro[1,6]naphthyridin-5(1H)-one]",0.35,–,99,–
"CC1=C(C#N)C(c2cccc([N+](=O)[O-])c2)C2=C(CCNC2=O)N1 (stereo not drawn) [Example 9, 4-(3-nitrophenyl)-3-cyano-2-methyl-4,6,7,8-tetrahydro[1,6]naphthyridin-5(1H)-one]",0.62,–,106,–
"CC1=C(C#N)C(c2ccc(Cl)c([N+](=O)[O-])c2)C2=C(CCNC2=O)N1 (stereo not drawn) [Example 10, 4-(4-chloro-3-nitrophenyl)-3-cyano-2-methyl-4,6,7,8-tetrahydro[1,6]naphthyridin-5(1H)-one]",0.14,–,110,–
"CC1=C(C#N)C(c2cc(F)c(F)cc2F)C2=C(CCNC2=O)N1 (stereo not drawn) [Example 14, 4-(2,4,5-trifluorophenyl)-3-cyano-2-methyl-4,6,7,8-tetrahydro[1,6]naphthyridin-5(1H)-one]",2.6,–,84,–
"CC1=C(C#N)C(c2ccc(F)c(F)c2)C2=C(CCNC2=O)N1 (stereo not drawn) [Example 12, 4-(3,4-difluorophenyl)-3-cyano-2-methyl-4,6,7,8-tetrahydro[1,6]naphthyridin-5(1H)-one]",0.89,–,89,–

# More lines, main results first:
EC50 (Cavia porcellus) [µM],EC50 [µM],Compound,Emax (Cavia porcellus) [%],Maximal Response (% P1075)
0.019,–,"COC(=O)C1=C(C)NC2=C(C(=O)OCC2)C1c1ccc(F)c(Br)c1 (stereo not drawn) [Example 29, 4-(3-bromo-4-fluorophenyl)-3-methoxycarbonyl-2-methyl-1,4,7,8-tetrahydro-5H-pyrano[4,3-b]pyridin-5-one]",81,–
14,–,"CC(=O)C1=C(C)NC2=C(C(=O)NCC2)C1c1ccc(F)c(Br)c1 (stereo not drawn) [Example 17, 3-acetyl-4-(3-bromo-4-fluorophenyl)-2-methyl-4,6,7,8-tetrahydro[1,6]naphthyridin-5(1H)-one]",45,–
0.004,–,"CC1=C(C#N)C(c2ccc(F)c(Br)c2)c2c(ccnc2Cl)N1 (racemic) [Example 32, 4-(3-bromo-4-fluorophenyl)-5-chloro-3-cyano-2-methyl-1,4-dihydro[1,6]naphthyridine]",91,–
0.039,–,"COC(=O)C1=C(C)Nc2ccnc(Cl)c2C1c1ccc(F)c(Br)c1 (stereo not drawn) [Example 31, 4-(3-bromo-4-fluorophenyl)-5-chloro-3-(methoxycarbonyl)-2-methyl-1,4-dihydro[1,6]naphthyridine]",93,–
0.62,–,"CC(=O)C1=C(C)Nc2cc[nH]c(=O)c2C1c1ccc(F)c(Br)c1 (stereo not drawn) [Example 19, 3-acetyl-4-(3-bromo-4-fluorophenyl)-2-methyl-4,6-dihydro[1,6]naphthyridin-5(1H)-one]",104,–
18,–,"O=C1NCCC2=C1C(c1ccc(F)c(Br)c1)C(C(=O)c1ccccc1)=C(c1ccccc1)N2 (stereo not drawn) [Example 20, 3-benzoyl-4-(3-bromo-4-fluorophenyl)-2-phenyl-4,6,7,8-tetrahydro[1,6]naphthyridin-5(1H)-one]",51,–
4,–,"COC(=O)C1=C(C)NC2=C(C(=O)OCC2)C1c1ccc(F)c(C(F)(F)F)c1 (stereo not drawn) [Example 30, 4-[4-fluoro-3-(trifluoromethyl)phenyl]-3-methoxycarbonyl-2-methyl-1,4,7,8-tetrahydro-5H-pyrano[4,3-b]pyridin-5-one]",52,–
0.022,–,"CC1=C(C#N)C(c2ccc(F)c(Br)c2)C2=C(CCOC2=O)N1 (stereo not drawn) [Example 28, 4-(3-bromo-4-fluorophenyl)-3-cyano-2-methyl-1,4,7,8-tetrahydro-5H-pyrano[4,3-b]pyridin-5-one]",82,–
0.74,–,"CC(=O)C1=C(C)Nc2cc[nH]c(=O)c2C1c1ccc(F)c(Br)c1 (racemic) [Example 18, 3-acetyl-4-(3-bromo-4-fluorophenyl)-2-methyl-4,6-dihydro[1,6]naphthyridin-5(1H)-one]",83,–
